Measured values published in patent publication US10953237B2, “Methods of providing skin care using phototherapy” (InDerm, priority 2015, dated 2021).

Test system: human epidermal keratinocytes
Assay: Wound repair (scratch wound closure) in keratinocyte culture
Type: cell-based
Description: The cells were cultured in a 24-well box (20 to 30 000 cells per well). At confluence, a “wound” was made at the center of the well using an “Essen Woundmaker” (Essen Bioscience, Ann Arbor, USA). After rinsing the wells with PBS to remove detached cells, the optional test agent was applied and illumination was started.
Cell migration was followed by two types of instrumentation, (i) videomicroscopy or (ii) Incucyte (Essen Bioscience): whereby a photo from the culture well is recorded every 30 minutes or every hour over a period of 48 hours.
Healing of wounds was studied by dynamic microscopy using a Nikon Eclipse Ti microscope allowing the taking of pictures at intervals of 30 minutes for 24 hours on primary cultures of human fibroblasts and keratinocytes. In this way, it was possible to assess the level of healing.
Incucyte is a device for visualizing and quantifying cell migration in a CO2 incubator at 37° C. The device is used with the Essen Woundmaker. The equipment was calibrated to produce wounds in cell cultures with high reproducibility. The device featured integrated processing software acquisition and image analysis allowing for quantification of the migration rate of cells.
The setup of this experiment was as described in the Materials and Methods Section herein above. […]

## CCCCCCCCCCCCCCCC(=O)O[C@@H]1C[C@@H](C(=O)O)N(C(=O)CCCCCCCCCCCCCCC)C1 [DPHP, Dipalmitoylhydroxyproline]
DPHP serum in combination with 3-LED lighting, keratinocytes (FIG. 4)
  effect on skin wound repair: positive effect
Serum (0.175 wt. % DPHP) added at 0.05 wt % of medium, with 3 LEDs 520, 660, 780 nm for 15 seconds, instead of 10 hrs
  time to 45% wound closure: 6 h
